# Values of other authors, collected in publication PMC3259182 (European Journal of Medicinal Chemistry, 2011).
# Legend:
# [1] = tested on: NV replicon-harboring cells (HG23 cells); conditions: NV genome levels, 24 hr post-treatment, ref [4]
# HG23 cells = conditions: median toxic dose at 48 hr of treatment, ref [4]
SMILES,ED50 [1] [µM],TD50 (HG23 cells) [µM]
"Cl.O=S1(=O)N(CCN2CCOCC2)CCN1Cc1cccc(Oc2ccccc2)c1 [Compound 7c, 2-(2-Morpholinoethyl)-5-(3-phenoxybenzyl)-1,2,5-thiadiazolidine 1,1-dioxide]",5.2,95.4
"O=S1(=O)N(CCN2CCCCC2)CCN1Cc1cccc(Oc2ccccc2)c1 [Compound 7d, 2-(3-Phenoxybenzyl)-5-(2-(piperidin-1-yl)ethyl)-1,2,5-thiadiazolidine1,1-dioxide]",4.7,12.3
